Data from ChEMBL document CHEMBL2034824, “Pyridyl-2,5-diketopiperazines as potent, selective, and orally bioavailable oxytocin antagonists: synthesis, pharmacokinetics, and in vivo potency” (J Med Chem, 2012).
pKi: −log10 of the molar value.

Tests used:
Oxytocin receptor [1] = biological target: T1, Oxytocin receptor (Homo sapiens, UniProt P30559); assay: Antagonist activity at human oxytocin receptor assessed as inhibition of oxytocin binding by FLIPR analysis
T1 sequence (P30559 whole entry): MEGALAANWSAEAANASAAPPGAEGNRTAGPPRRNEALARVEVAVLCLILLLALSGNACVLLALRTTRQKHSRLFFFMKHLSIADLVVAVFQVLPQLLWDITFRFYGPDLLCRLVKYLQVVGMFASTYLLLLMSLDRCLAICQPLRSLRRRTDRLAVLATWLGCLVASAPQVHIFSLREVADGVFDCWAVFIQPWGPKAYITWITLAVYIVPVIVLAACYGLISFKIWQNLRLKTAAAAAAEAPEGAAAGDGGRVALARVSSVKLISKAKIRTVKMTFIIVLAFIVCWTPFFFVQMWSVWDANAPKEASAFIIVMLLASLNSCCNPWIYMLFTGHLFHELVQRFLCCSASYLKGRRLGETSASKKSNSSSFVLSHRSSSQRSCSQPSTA

Oxytocin receptor [2] = biological target: T1, Oxytocin receptor; assay: Displacement of [3H]oxytocin from human oxytocin receptor
[3] = Clearance in rat at 5 mg/kg; assay type: ADME, organism-based; parameters: dose 5 mg/kg; conditions: in vivo
Liver = assay: Intrinsic clearance in dog liver microsomes; assay type: ADME, Canis lupus familiaris, Microsome
[4] = Intrinsic clearance in cynomolgus monkey liver microsomes; assay type: ADME, Macaca fascicularis, Microsome
[5] = AUC in rat at 5 mg/kg, po; assay type: ADME, organism-based; parameters: dose 5 mg/kg, route oral; conditions: plasma
[6] = AUC in cynomolgus monkey at 2 mg/kg, po; assay type: ADME, organism-based, Macaca fascicularis; parameters: dose 2 mg/kg, route oral; conditions: plasma
Liver microsomes [7] = assay: Intrinsic clearance in human liver microsomes; assay type: ADME, Microsome
[8] = Oral bioavailability in rat at 5 mg/kg; assay type: ADME, organism-based; conditions: in vivo
Liver microsomes [9] = assay: Intrinsic clearance in rat liver microsomes; assay type: ADME, Microsome

Structure (SMILES): CCc1ccccc1[C@H](C(=O)NC(C)C)N1C(=O)[C@@H](C2Cc3ccccc3C2)NC(=O)[C@H]1CC(C)C
- pKi (Oxytocin receptor [1]): 7.80

Structure (SMILES): CC(C)C[C@@H]1C(=O)N[C@H](C2Cc3ccccc3C2)C(=O)N1[C@@H](C(=O)NC(C)C)c1ccccc1Cl
- pKi (Oxytocin receptor [1]): 8.40

Structure (SMILES): COC(=O)c1ccccc1[C@@H](C(=O)NC(C)C)N1C(=O)[C@@H](C2Cc3ccccc3C2)NC(=O)[C@H]1CC(C)C
- pKi (Oxytocin receptor [1]): 6.80

Structure (SMILES): CC(C)C[C@@H]1C(=O)N[C@H](C2Cc3ccccc3C2)C(=O)N1[C@@H](C(=O)NC(C)C)c1ccccc1-c1ccccc1
- pKi (Oxytocin receptor [1]): 7.40

Structure (SMILES): CC(C)C[C@@H]1C(=O)N[C@H](C2Cc3ccccc3C2)C(=O)N1[C@@H](C(=O)NC(C)C)c1ccccc1OC(F)(F)F
- pKi (Oxytocin receptor [1]): 7.40

Structure (SMILES): CCC(CC)[C@@H]1C(=O)N[C@H](C2Cc3ccccc3C2)C(=O)N1[C@@H](C(=O)N1CCOCC1)c1ccc(C)nc1C
- pKi (Oxytocin receptor [2]): 10.50
- clearance [3]: 15 mL/min/kg
- CLH (Liver): 1 mL/min/g
- CLH [4]: 14 mL/min/g
- AUC [5]: 2330 ng·h/mL
- AUC [6]: 11 ng·h/mL
- CLH (Liver microsomes [7]): 11 mL/min/g
- bioavailability [8]: 42%
- CLH (Liver microsomes [9]): 1 mL/min/g

Structure (SMILES): COc1ccccc1[C@H](C(=O)NC(C)C)N1C(=O)[C@@H](C2Cc3ccccc3C2)NC(=O)[C@H]1CC(C)C
- pKi (Oxytocin receptor [1]): 7.50
